Measurements from PMC7582905, “Effect of Disulfide Cyclization of Ultrashort Cationic Lipopeptides on Antimicrobial Activity and Cytotoxicity” (International Journal of Molecular Sciences, 2020).
Values after ≈ are worked out from the molar mass of the structure shown. Where a SMILES comes first, the peptide text is derived from it. Bridges are numbered along the chain shown (N, C = ends). The star is where a group is joined. Palmitoyl = CCCCCCCCCCCCCCCC(=O)*

Experiments:
[1] = RP-HPLC determination of peptide hydrophobicity; assay type: physicochemical; conditions: 0.1% TFA; for reduced retention time t’R: RP-HPLC retention as measure of hydrophobicity, Waters X-Bridge Shield RP-18 3.0 × 100 mm, 3.5 μm, linear 20–65% acetonitrile in water over 30 min, 0.5 mL/min, 25.0 °C, UV 214 nm, 1 g/L, triplicate; for ∆tR: tR of cyclic analog − tR of parent lipopeptide, RP-HPLC, RP-18, 20–65% acetonitrile over 30 min
Description: The peptides were analyzed by RP-HPLC to determine relative hydrophobicity vs. retention time of each compound. In general, more hydrophobic lipopeptides will elute later than hydrophilic ones. Using this simple rule enables comparison of hydrophobicity by reduced retention times (t’R) and differences in retention time between the cyclic analog and its linear parent lipopeptide (Table 1). It can be deduced that the presence of cystine moiety has led to increased hydrophobicity. All cyclic lipopeptides are more hydrophobic than their linear counterparts but the effect of disulfide cyclization on retention is different in each pair. The highest increase in retention was noticed for the shortest lipopeptides L1 (C16-KKK-NH2) and C1 (C16-CKKKC-NH2). The differences between lipopeptides with one arginine residue indicate that its position is crucial for retention and therefore hydrophobicity. To learn how the arginine position affects hydrophobicity, the retention time of compound L2 (C16-KKKK-NH2) or C2 (C16-CKKKKC-NH2) was subtracted from that of the lipopeptides with one arginine residue, linear (L3, L4, L5, L6) or cyclic (C3, C4, C5, C6), respectively. In Figure 2 the effect of arginine position on retention time is related to unsubstituted lipopeptide.
To determine peptide hydrophobicity, a Waters Alliance e2695 system with a Waters 2998 PDA Detector (software-Empower 3, Waters, Milford, MA, USA) was used. All analyses were carried out on a Waters X-Bridge Shield RP-18 column (3.0 × 100 mm, 3.5 μm particle size, 130 Å pore size). The Shield Technology column with embedded polar groups was used to minimize interactions of unreacted silanol groups with basic lipopeptides. The peptides were dissolved in water (0.1% TFA, v/v) up to a concentration of 1 g/L. UV detection at 214 nm was used, and samples (10 μL) were eluted with a linear 20–65% acetonitrile gradient in deionized water over 30 min at 25.0 ± 0.1 °C. The mobile phase flow rate was 0.5 mL/min. Both eluents contained 0.1% (v/v) of TFA. Each peptide sample was analyzed in triplicate. Maximum standard deviation and coefficient of variation were 0.042 and 0.25%, respectively.

[2] = test system: Candida albicans ATCC 10231; assay type: cell-based; conditions: ATCC 10231, 24 h
Description: (§1) The Staphylococcus aureus ATCC 25923, Staphylococcus epidermidis ATCC 14990, Escherichia coli ATCC 25922, Pseudomonas aeruginosa ATCC 9027, Candida albicans ATCC 10231, Candida glabrata ATCC 15126, Candida lipolytica PCM 2680-FY, and Candida tropicalis PCM 2709-FY strains were acquired from the Polish Collection of Microorganisms (PCM, Polish Academy of Sciences, Wrocław, Poland) and from the American Type Culture Collection (ATCC). All the strains were stored at −80 °C in Roti-Store cryo vials and before the tests were transferred into fresh Mueller–Hinton broth (MHB, Biocorp, Warsaw, Poland) for bacteria or RPMI-1640 (Sigma-Aldrich, Steinheim, Germany) for fungi and incubated for 24 h at 37 °C. Then, the cultures were seeded on Mueller–Hinton agar (BioMaxima, Lublin, Poland) or Sabouraud dextrose agar (SDA, BioMaxima, Lublin, Poland) plates, respectively, and incubated as just mentioned. These agar cultures were used for further microbiological assays. Cell densities for all assays were adjusted spectrophotometrically (Multiskan GO Microplate Spectrophotometer, Thermo Fisher Scientific, Vantaa, Finland) at 600 and 660 nm for bacteria and fungi, respectively.
(§2) The MICs were determined by broth microdilution method according to the Clinical and Laboratory Standard Institute guidelines For this purpose, initial inoculums of bacteria (5 × 10^5 CFU/mL) in MHB and yeasts (2 × 10^3 CFU/mL) in RPMI-1640 with 2% D-glucose were exposed to the ranging concentration of lipopeptides (0.5–256 μg/mL) and incubated at 37 °C for 18 h and 24 h, respectively. The experiments were conducted on 96-well microtiter polystyrene plates. The growth was assessed visually after incubation and the MIC was assumed as the lowest peptide concentration at which a noticeable growth of microorganisms was inhibited. All experiments were conducted in triplicate.

[3] = test system: Candida glabrata ATCC 15126; assay type: cell-based; conditions: ATCC 15126, 24 h
Description: as §1, §2

[4] = test system: Candida lipolytica PCM 2680-FY; assay type: cell-based; conditions: 24 h
Description: as §1, §2

[5] = test system: Candida tropicalis PCM 2709-FY; assay type: cell-based; conditions: PCM 2709-FY, 24 h
Description: as §1, §2

[6] = test system: Escherichia coli ATCC 25922; assay type: cell-based; conditions: ATCC 25922, 18 h
Description: as §1, §2

[7] = test system: Pseudomonas aeruginosa ATCC 9027; assay type: cell-based; conditions: ATCC 9027, 18 h
Description: as §1, §2

[8] = test system: Staphylococcus epidermidis ATCC 14990; assay type: cell-based; conditions: ATCC 14990, 18 h
Description: as §1, §2

[9] = test system: Candida albicans ATCC 10231; assay type: cell-based; conditions: ATCC 10231, 24 h; remark: listed apart in the source
Description: as §1
(§3) The assay was performed to evaluate the effect of the lipopeptides in preventing biofilm formation. The preparation of inoculums was followed by a ca. 500-fold dilution of the 24 h cultures of microorganisms. Briefly, 50 μL of the compounds in the concentration range, diluted in appropriate medium, were prepared on 96-well polystyrene flat-bottom plates. Subsequently, the 50 μL of the bacterial/fungal inoculums were added to reach the same microbial density as that in the MBEC assay. After 24 h of incubation at 37 °C, the wells were rinsed three times with PBS and the fresh media with resazurin (4 g/L) were added. The MBICs were read after 1 h. All experiments were conducted in triplicate.

[10] = test system: Candida glabrata ATCC 15126; assay type: cell-based; conditions: ATCC 15126, 24 h; remark: listed apart in the source
Description: as §1, §3

[11] = test system: Candida lipolytica PCM 2680-FY; assay type: cell-based; conditions: 24 h; remark: listed apart in the source
Description: as §1, §3

[12] = test system: Candida tropicalis PCM 2709-FY; assay type: cell-based; conditions: PCM 2709-FY, 24 h; remark: listed apart in the source
Description: as §1, §3

[13] = test system: Escherichia coli ATCC 25922; assay type: cell-based; conditions: ATCC 25922, 24 h
Description: as §1, §3

[14] = test system: Pseudomonas aeruginosa ATCC 9027; assay type: cell-based; conditions: ATCC 9027, 24 h
Description: as §1, §3

[15] = test system: Staphylococcus aureus ATCC 25923; assay type: cell-based; conditions: ATCC 25923, 24 h
Description: as §1, §3

[16] = test system: Staphylococcus epidermidis ATCC 14990; assay type: cell-based; conditions: ATCC 14990, 24 h
Description: as §1, §3

| SMILES | reduced retention time t’R [1] | ∆tR [1] | MIC C. albicans [2] | MIC C. glabrata [3] | MIC C. lipolytica [4] | MIC C. tropicalis [5] | MIC E. coli [6] | MIC P. aeruginosa [7] | MIC S. epidermidis [8] | MBIC C. albicans [9] | MBIC C. glabrata [10] | MBIC C. lipolytica [11] | MBIC C. tropicalis [12] | MBIC E. coli [13] | MBIC P. aeruginosa [14] | MBIC S. aureus [15] | MBIC S. epidermidis [16] |
| --- | --- | --- | --- | --- | --- | --- | --- | --- | --- | --- | --- | --- | --- | --- | --- | --- | --- |
| CCCCCCCCCCCCCCCC(=O)N[C@H]1CSSC[C@@H](C(N)=O)NC(=O)[C@H](CCCCN)NC(=O)[C@H](CCCNC(=N)N)NC(=O)[C@H](CCCCN)NC(=O)[C@H](CCCCN)NC1=O [C5, C16-CKKRKC-NH2] (Palmitoyl-CKKRKC-NH2; disulfide 1-6) | 16.16 min | +1.15 min | 16 µg/mL (≈ 16 µM) | 8 µg/mL (≈ 8 µM) | 4 µg/mL (≈ 4 µM) | 4 µg/mL (≈ 4 µM) | 16 µg/mL (≈ 16 µM) | 256 µg/mL (≈ 256 µM) | 4 µg/mL (≈ 4 µM) | 16 µg/mL | 16 µg/mL | 8 µg/mL | 8 µg/mL | 32 µg/mL | 64 µg/mL | 32 µg/mL | 16 µg/mL |
| CCCCCCCCCCCCCCCC(=O)N[C@H]1CSSC[C@@H](C(N)=O)NC(=O)[C@H](CCCNC(=N)N)NC(=O)[C@H](CCCCN)NC(=O)[C@H](CCCCN)NC(=O)[C@H](CCCCN)NC1=O [C6, C16-CKKKRC-NH2] (Palmitoyl-CKKKRC-NH2; disulfide 1-6) | 16.32 min | +1.43 min | 4 µg/mL (≈ 4 µM) | 4 µg/mL (≈ 4 µM) | 2 µg/mL (≈ 2 µM) | 2 µg/mL (≈ 2 µM) | 32 µg/mL (≈ 32 µM) | 128 µg/mL (≈ 128 µM) | 8 µg/mL (≈ 8 µM) | 16 µg/mL | 8 µg/mL | 8 µg/mL | 8 µg/mL | 64 µg/mL | 64 µg/mL | 32 µg/mL | 8 µg/mL |
| CCCCCCCCCCCCCCCC(=O)N[C@H]1CSSC[C@@H](C(N)=O)NC(=O)[C@H](CCCCN)NC(=O)[C@H](CCCCN)NC(=O)[C@H](CCCNC(=N)N)NC(=O)[C@H](CCCNC(=N)N)NC1=O [C7, C16-CRRKKC-NH2] (Palmitoyl-CRRKKC-NH2; disulfide 1-6) | 16.83 min | +1.25 min | 16 µg/mL (≈ 15.6 µM) | 4 µg/mL (≈ 3.89 µM) | 4 µg/mL (≈ 3.89 µM) | 4 µg/mL (≈ 3.89 µM) | 16 µg/mL (≈ 15.6 µM) | 256 µg/mL (≈ 249 µM) | 4 µg/mL (≈ 3.89 µM) | 16 µg/mL | 16 µg/mL | 8 µg/mL | 8 µg/mL | 128 µg/mL | 128 µg/mL | 16 µg/mL | 16 µg/mL |
| CCCCCCCCCCCCCCCC(=O)N[C@@H](CCCCN)C(=O)N[C@@H](CCCCN)C(=O)N[C@@H](CCCCN)C(N)=O [L1, C16-KKK-NH2] | 16.14 min | – | 32 µg/mL (≈ 50 µM) | 32 µg/mL (≈ 50 µM) | 16 µg/mL (≈ 25 µM) | 8 µg/mL (≈ 12.5 µM) | 16 µg/mL (≈ 25 µM) | 64 µg/mL (≈ 100 µM) | 8 µg/mL (≈ 12.5 µM) | 128 µg/mL | 128 µg/mL | 32 µg/mL | 16 µg/mL | 32 µg/mL | 32 µg/mL | 32 µg/mL | 16 µg/mL |
| CCCCCCCCCCCCCCCC(=O)N[C@@H](CCCCN)C(=O)N[C@@H](CCCCN)C(=O)N[C@@H](CCCCN)C(=O)N[C@@H](CCCCN)C(N)=O [L2, C16-KKKK-NH2] (Palmitoyl-KKKK-NH2) | 14.77 min | – | 32 µg/mL (≈ 41.7 µM) | 64 µg/mL (≈ 83.3 µM) | 8 µg/mL (≈ 10.4 µM) | 4 µg/mL (≈ 5.21 µM) | 32 µg/mL (≈ 41.7 µM) | 16 µg/mL (≈ 20.8 µM) | 8 µg/mL (≈ 10.4 µM) | 128 µg/mL | 128 µg/mL | 32 µg/mL | 16 µg/mL | 32 µg/mL | 64 µg/mL | 32 µg/mL | 16 µg/mL |
